Where a name gives a salt, the structure may show the parent alone. Read-outs that look alike come from different tables or passages of the source.
Columns and labels:
[1] = biological target: T1, JAK2 tyrosine kinase (Homo sapiens, UniProt O60674); assay: Test 1: inhibitory activity to JAK2 tyrosine kinase (ELISA); assay type: biochemical; conditions: 25 μM ATP in substrate solution, 30° C. for 1 hour, n=2
T1 construct: purchased Carnabioscience Co
Summary of the method: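 Human JAK2 (diluted to 0.75 nM before addition) phosphorylated a biotinylated peptide on streptavidin plates for 1 h at 30 °C. The substrate mix held 625 nM peptide, 25 μM ATP and 25 mM MgCl2 in 15 mM Tris pH 7.5, 0.01% Tween-20 and 1 mM DTT. Phosphotyrosine was detected by HRP antibody/TMB at 450 nm, and IC50 was obtained by non-linear regression; duplicates were run.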

[2] = biological target: T2, JAK3 tyrosine kinase (Homo sapiens, UniProt P52333); assay: Test 1: inhibitory activity to JAK3 tyrosine kinase (ELISA); assay type: biochemical; conditions: 25 μM ATP in substrate solution, 30° C. for 1 hour, n=2
T2 construct: purchased Carnabioscience Co
T2 sequence (P52333 1-1124): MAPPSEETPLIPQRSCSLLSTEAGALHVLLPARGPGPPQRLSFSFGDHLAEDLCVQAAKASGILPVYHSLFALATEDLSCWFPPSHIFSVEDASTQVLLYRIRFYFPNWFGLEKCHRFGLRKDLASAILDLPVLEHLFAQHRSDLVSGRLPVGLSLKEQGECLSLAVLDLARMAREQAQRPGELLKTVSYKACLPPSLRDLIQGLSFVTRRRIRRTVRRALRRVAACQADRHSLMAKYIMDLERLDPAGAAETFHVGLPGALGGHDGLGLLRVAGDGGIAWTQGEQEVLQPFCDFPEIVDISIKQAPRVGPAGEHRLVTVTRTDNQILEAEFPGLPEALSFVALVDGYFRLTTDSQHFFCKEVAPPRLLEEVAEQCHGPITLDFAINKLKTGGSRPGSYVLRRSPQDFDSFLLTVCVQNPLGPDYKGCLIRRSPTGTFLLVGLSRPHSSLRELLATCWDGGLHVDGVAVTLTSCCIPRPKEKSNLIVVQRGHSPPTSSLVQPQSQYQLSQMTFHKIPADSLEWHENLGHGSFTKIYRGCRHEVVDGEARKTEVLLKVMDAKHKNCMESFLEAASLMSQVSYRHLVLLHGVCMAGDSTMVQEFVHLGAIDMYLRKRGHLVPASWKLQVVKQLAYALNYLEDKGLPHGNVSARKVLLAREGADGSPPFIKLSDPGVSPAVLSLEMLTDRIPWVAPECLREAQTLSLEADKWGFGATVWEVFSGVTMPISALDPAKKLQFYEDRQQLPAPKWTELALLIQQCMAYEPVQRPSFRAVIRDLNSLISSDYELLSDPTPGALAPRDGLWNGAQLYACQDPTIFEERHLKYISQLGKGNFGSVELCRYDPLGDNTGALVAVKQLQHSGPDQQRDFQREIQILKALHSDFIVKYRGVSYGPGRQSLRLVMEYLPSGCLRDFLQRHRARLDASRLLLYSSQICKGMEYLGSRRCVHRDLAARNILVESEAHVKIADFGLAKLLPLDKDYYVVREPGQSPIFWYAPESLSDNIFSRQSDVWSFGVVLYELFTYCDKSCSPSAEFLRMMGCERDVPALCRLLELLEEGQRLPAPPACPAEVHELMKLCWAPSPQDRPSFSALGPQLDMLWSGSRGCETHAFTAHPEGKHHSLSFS
Summary of the method: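 ELISA of JAK3 kinase activity with absorbance read at 450 nm. Compounds were tested from DMSO dilution series at 100-fold the measurement concentrations (1000–0.01 μM), diluted up to 20 times in assay buffer, against a DMSO negative control. IC50 was estimated by non-linear regression of absorbance.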

[3] = biological target: BaF3 cells into which JAK2 V617F gene was introduced (Homo sapiens, UniProt O60674, V617F, cells depend on it); assay: Test 2: growth inhibitory action against variant JAK2 expressed cells (MTT method); assay type: cell-based; conditions: incubation for 3 days, triplicate, read-out: concentration of the test material which inhibited 50% of the cell growth (IC50)
Sequence of BaF3 cells into which JAK2 V617F gene was introduced (O60674 whole entry V617F): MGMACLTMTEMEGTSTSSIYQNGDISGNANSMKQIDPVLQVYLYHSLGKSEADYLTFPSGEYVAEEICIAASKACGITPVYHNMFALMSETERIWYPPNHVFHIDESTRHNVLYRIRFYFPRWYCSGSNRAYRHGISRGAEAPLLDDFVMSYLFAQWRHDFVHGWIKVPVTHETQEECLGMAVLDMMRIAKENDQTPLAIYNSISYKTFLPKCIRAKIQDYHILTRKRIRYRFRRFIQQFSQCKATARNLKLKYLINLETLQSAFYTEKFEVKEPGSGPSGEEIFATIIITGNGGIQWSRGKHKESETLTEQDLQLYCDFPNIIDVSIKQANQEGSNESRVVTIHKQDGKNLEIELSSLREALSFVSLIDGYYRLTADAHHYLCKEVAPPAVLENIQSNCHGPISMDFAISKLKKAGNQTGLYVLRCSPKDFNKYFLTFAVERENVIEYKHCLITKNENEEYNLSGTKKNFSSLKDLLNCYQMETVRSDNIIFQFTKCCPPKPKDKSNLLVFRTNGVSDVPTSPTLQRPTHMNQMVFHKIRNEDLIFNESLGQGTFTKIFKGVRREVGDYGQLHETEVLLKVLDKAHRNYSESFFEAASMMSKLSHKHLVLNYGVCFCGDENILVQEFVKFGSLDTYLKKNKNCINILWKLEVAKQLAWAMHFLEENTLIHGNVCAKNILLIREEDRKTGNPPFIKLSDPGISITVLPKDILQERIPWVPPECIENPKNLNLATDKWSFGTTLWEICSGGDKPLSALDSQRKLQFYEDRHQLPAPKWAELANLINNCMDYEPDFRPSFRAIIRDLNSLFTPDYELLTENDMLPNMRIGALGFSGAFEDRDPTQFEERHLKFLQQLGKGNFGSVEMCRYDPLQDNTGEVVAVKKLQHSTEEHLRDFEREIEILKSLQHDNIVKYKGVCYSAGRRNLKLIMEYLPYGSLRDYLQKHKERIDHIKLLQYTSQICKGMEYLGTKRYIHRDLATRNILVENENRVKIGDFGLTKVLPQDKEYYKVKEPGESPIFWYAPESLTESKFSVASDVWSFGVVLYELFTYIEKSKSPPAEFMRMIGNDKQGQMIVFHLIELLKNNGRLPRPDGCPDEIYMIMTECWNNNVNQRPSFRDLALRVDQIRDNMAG
Procedure: Test 2: Growth inhibitory action against variant JAK2 expressed cells
BaF3 cells into which JAK2 V617F gene was introduced ([…]) were inoculated on a 96-well plate in an amount of 1×10^3 cells/well and allowed to stand in a CO2 incubator. Next day, the test material was added to the cells. The test material was serially diluted with DMSO to give 10 mM, 6 mM, 3 mM, 1 mM, 600 μM, 300 μM, 100 μM, 60 μM, 30 μM, or 10 μM solution. This was diluted 100 times with distilled water to give 100 μM, 60 μM, 30 μM, 10 μM, 6 μM, 3 μM, 1 μM, 600 nM, 300 nM, or 100 nM solution. This solution of test material was added to the well in an amount of 10 μl/well. As a negative control, 1% DMSO solution was added to the well in an amount of 10 μl/well. In the above operation, the final concentration of the test material became 10 μM, 6 μM, 3 μM, 1 μM, 600 nM, 300 nM, 100 nM, 60 nM, 30 nM, 10 nM, or 0 nM (0.1% DMSO solution). The addition of the test material solution to each well was made in triplicate.
After continuous incubation for 3 days, the viable count was determined by an MTT method. The MTT method was carried out as follows. First, 10 μl each of solution containing 5 mg/ml of MTT (3-(4,5-dimethylthiazol-2-yl)-2,5-diphenyltetrazolium bromide) was added to each well. The plate was allowed to stand in a CO2 incubator for 4 hours, and then 100 μl of 0.04N HCl/2-propanol solution was added to each well to stop the reaction. The generated MTT-formazan was dissolved well with a multi-channel pipette, and the absorbance at 595 nm was measured with reference to that at 655 nm (Thermo Co.; Multiskan FC). Non-linear regression analysis was made by means of a SAS system (SAS Institute Inc.), and the concentration (IC50) of the test material which inhibited 50% of the cell growth was estimated.

T1 sequence (O60674 whole entry): as the sequence (O60674 whole entry V617F) above, with F617V counted along it

IC50 [1] | IC50 [2] | GI50 [3] | GI50 ([3]; hydrochloride) | GI50 ([3]; maleate) | Structure (SMILES)
0.94 nM | 45 nM | 83 nM |  |  | C[C@H](Nc1nc(Nc2cnccn2)cc(N2CCNC(=O)C2)n1)c1ccc(F)cc1 [Example 1, (S)-4-{2-[1-(4-Fluorophenyl)ethylamino]-6-(pyrazin-2-ylamino)pyrimidin-4-yl}piperazin-2-one]
0.49 nM | 43 nM | 70 nM |  |  | CC(=O)N[C@H]1CCN(c2cc(Nc3cnccn3)nc(N[C@@H](C)c3ccc(F)cc3)n2)C1 [Example 2, N-{(S)-1-[2-{[(S)-1-(4-Fluorophenyl)ethyl]amino-}-6-(pyrazin-2-ylamino)pyrimidin-4-yl]pyrrolidin-3-yl}acetamide hydrochloride]
0.59 nM | 44 nM |  | 71 nM |  | C[C@H](Nc1cc(-c2cnn(C)c2)cc(Nc2cnccn2)n1)c1ccc(F)cc1 [Example 4, (S)—N^2-[1-(4-Fluorophenyl)ethyl]-4-(1-methyl-1H-pyrazol-4-yl)-N^6-(pyrazin-2-yl)pyridine-2,6-diamine hydrochloride]
0.42 nM | 39 nM | 90 nM |  |  | C[C@H](Nc1cc(-c2ccc(O)nc2)cc(Nc2cnccn2)n1)c1ccc(F)cc1 [Example 7, (S)-2′-[1-(4-Fluorophenyl)ethylamino]-6′-(pyrazin-2-ylamino)-3,4′-bipyridin-6-ol hydrochloride]
0.69 nM | 21 nM | 55 nM |  |  | C[C@H](Nc1nc(Nc2cnccn2)cc(N2CCOCC2)n1)c1ccc(F)cc1 [Example 20, (S)—N^2-[1-(4-Fluorophenyl)ethyl]-6-morpholino-N^4-(pyrazin-2-yl)pyrimidine-2,4-diamine]
0.52 nM | 42 nM | 89 nM |  |  | CC(=O)N[C@@H]1CCN(c2cc(Nc3cnccn3)nc(N[C@@H](C)c3ccc(F)cc3)n2)C1 [Example 27, N—((R)-1-{2-[(S)-1-(4-Fluorophenyl)ethylamino]-6-(pyrazin-2-ylamino)pyrimidin-4-}pyrrolidin-3-yl)acetamide hydrochloride]
1.2 nM | 110 nM | 94 nM |  |  | C[C@H](Nc1cc(-c2cn[nH]c2)cc(Nc2cnccn2)n1)c1ccc(F)cc1 [Example 28, (S)—N^2-[1-(4-Fluorophenyl)ethyl]-N^6-(pyrazin-2-yl)-4-(1H-pyrazol-4-yl)pyridine-2,6-diamine]
1.5 nM | 75 nM |  |  | 60 nM | C[C@H](Nc1cc(-c2cnn(C)c2)cc(Nc2cnccn2)n1)c1ccc(F)cc1 [Example 30, (S)—N^2-[1-(4-Fluorophenyl)ethyl]-4-(1-methyl-1H-pyrazol-4-yl)-N^6-(pyrazin-2-yl)pyridine-2,6-diamine maleate]
0.41 nM | 26 nM |  |  | 87 nM | C[C@H](Nc1nc(Nc2cnccn2)cc(N2CCOCC2)n1)c1ccc(F)cc1 [Example 31, (S)—N^2-[1-(4-Fluorophenyl)ethyl]-6-morpholino-N^4-(pyrazin-2-yl)pyrimidine-2,4-diamine maleate]
0.84 nM | 29 nM | 53 nM |  |  | C[C@H](Nc1nc(Nc2cnccn2)cc(N2CCC(O)C2)n1)c1ccc(F)cc1 (stereo partly drawn) [Example 50, 1-{2-[(S)-1-(4-Fluorophenyl)ethylamino]-6-(pyrazin-2-ylamino)pyrimidin-4-yl}pyrrolidin-3-ol hydrochloride]
0.79 nM | 24 nM | 81 nM |  |  | C[C@H](Nc1nc(Nc2cnccn2)cc(N2CCC(C(N)=O)CC2)n1)c1ccc(F)cc1 [Example 56, (S)-1-{2-[1-(4-Fluorophenyl)ethylamino]-6-(pyrazin-2-ylamino)pyrimidin-4-yl}piperidine-4-carboxamide hydrochloride]
0.71 nM | 28 nM | 80 nM |  |  | C[C@H](Nc1nc(Nc2cnccn2)cc(N2CCC(NS(C)(=O)=O)C2)n1)c1ccc(F)cc1 (stereo partly drawn) [Example 60, N-(1-{2-[(S)-1-(4-Fluorophenyl)ethylamino]-6-(pyrazin-2-ylamino)pyrimidin-4-yl}pyrrolidin-3-yl)methanesulfonamide hydrochloride]
1.5 nM | 59 nM |  |  |  | CNC1CN(c2cc(Nc3cnccn3)nc(N[C@@H](C)c3ccc(F)cc3)n2)C1 [Example 221, (S)—N^2-[1-(4-Fluorophenyl)ethyl]-6-[3-(methylamino)azetidin-1-yl]-N^4-(pyrazin-2-yl)pyrimidine-2,4-diamine]
1.1 nM | 20 nM |  |  |  | C[C@H](Nc1nc(Nc2cnccn2)cc(N2CC(NC(N)=O)C2)n1)c1ccc(F)cc1 [Example 227, (S)-1-(1-{2-[1-(4-Fluorophenyl)ethylamino]-6-(pyrazin-2-ylamino)pyrimidin-4-yl}azetidin-3-yl)urea]
3.9 nM | 180 nM |  |  |  | C[C@H](Nc1nc(Nc2cnccn2)cc(N2CC(CNC(=O)OC(C)(C)C)C2)n1)c1ccc(F)cc1 [Example 229, t-Butyl (S)-(1-{2-[1-(4-fluorophenyl)ethylamino]-6-(pyrazin-2-ylamino)pyrimidin-4-yl}azetidin-3-yl)methyl carbamate]
1.2 nM | 63 nM |  |  |  | C[C@H](Nc1nc(Nc2cnccn2)cc(N2CC(CN)C2)n1)c1ccc(F)cc1 [Example 230, (S)-6-[3-(Aminomethyl)azetidin-1-yl]-N^2-[1-(4-fluorophenyl)ethyl]-N^4-(pyrazin-2-yl)pyrimidine-2,4-diamine]
5.8 nM | 140 nM |  |  |  | C[C@H](Nc1cc(N2CC(N3CCOCC3)C2)cc(Nc2cnccn2)n1)c1ccc(F)cc1 [Example 233, (S)—N^2-[1-(4-Fluorophenyl)ethyl]-4-[3-morpholinoazetidin-1-yl]-N^6-(pyrazin-2-yl)pyridine-2,6-diamine]
5.4 nM | 170 nM |  |  |  | C[C@H](Nc1cc(N2CC(N3CCC(O)CC3)C2)cc(Nc2cnccn2)n1)c1ccc(F)cc1 [Example 234, (S)-1-(1-{2-[1-(4-Fluorophenyl)ethylamino]-6-(pyrazin-2-ylamino)pyridin-4-yl}azetidin-3-yl)piperidin-4-ol]
